Source: the NIST ThermoML archive (doi:10.1016/j.jct.2008.01.028)
± gives the expanded uncertainty stated by the source.

Test: wn = mass fraction of the nth substance listed
Settings: Liquid

Work on CN(CCO)CCO [N-methyldiethanolamine] + O yielded a mass density (298.31 K, 205 kPa, w1 = 0.3) of 1023.7 ± 0.7 kg/m3, a mass density (298.31 K, 506 kPa, w1 = 0.3) of 1023.8 ± 0.7 kg/m3 and a mass density (298.31 K, 1006 kPa, w1 = 0.3) of 1024 ± 0.7 kg/m3. The mass density (298.31 K, 2006 kPa, w1 = 0.3) was 1024.3 ± 0.8 kg/m3, the mass density (298.32 K, 5003 kPa, w1 = 0.3) was 1025.5 ± 0.8 kg/m3 and the mass density (298.33 K, 206 kPa, w1 = 0.15) was 1009.9 ± 0.6 kg/m3. For the same molecule, the mass density (298.33 K, 508 kPa, w1 = 0.15) was 1010 ± 0.6 kg/m3, the mass density (298.33 K, 1008 kPa, w1 = 0.15) was 1010.2 ± 0.6 kg/m3 and the mass density (298.33 K, 2008 kPa, w1 = 0.15) was 1010.6 ± 0.6 kg/m3. It also gave a mass density (298.34 K, 5006 kPa, w1 = 0.15) of 1011.9 ± 0.6 kg/m3.
